Drawing on ChEMBL document CHEMBL4483862, “Open-source discovery of chemical leads for next-generation chemoprotective antimalarials” (2018), this text covers IC50 and IC90 for 33 compounds.

The structures appear in SMILES notation.

This assay relates to Plasmodium berghei. The experiment in a line: Luciferase/luciferin-expressing antifolate-resistant parasites were used to infect a culture of HepG2 cells that were pre-incubated with compounds. Infected hepatocytes emit light due to the luciferase reaction. Assay results are presented as the percent inhibition of light emission compared to control. […]. It is filed as functional. The note with it: sporozoite; for IC90: read-out: LUCIFERASE INFECTION ASSAY - IC90.

Setting [1] is: read-out: LUCIFERASE INFECTION ASSAY - IC50.

As to `CC(NC(=O)c1ccccc1NC(=O)CN1CCN(C/C=C/c2ccccc2)CC1)c1ccccc1` (stereo unspecified), the IC90 turned out to be 8.52 µM. For the setting “PBLUC_HILL_SLOPE 3.6, PBLUC_R_SQUARED 0.261, read-out: LUCIFERASE INFECTION ASSAY - IC50”, the IC50 came out at 4.62 µM.

On to `COc1ccc(CN2C(=O)N(CC(C)C)C3(CCN(Cc4c[nH]c5ccccc45)CC3)C2=O)cc1`, for which the IC90 is over 6.95 µM. Moreover, under setting [1], the half-maximal inhibitory concentration (IC50) was 6.77 µM.

Regarding `CC(=O)c1cccc(-c2ccnc3c2CC(C(=O)NCCc2ccccc2)O3)c1` (stereo unspecified), the IC90 is 5.14 µM. For the same compound, the half-maximal inhibitory concentration (IC50) (HEPG2TOX_HILL_SLOPE 2.91, HEPG2TOX_R_SQUARED 0.95, PBLUC_HILL_SLOPE 2.2, PBLUC_R_SQUARED 0.478, read-out: LUCIFERASE INFECTION ASSAY - IC50) came out at 1.89 µM.

For the compound `CCOc1ccccc1NC(=O)C(c1ccccc1)N1CCC(n2c(=O)[nH]c3ccccc32)CC1` (stereo unspecified), the IC90 is over 10 µM. The 50% inhibitory concentration (IC50) under setting [1] is 5.29 µM.

Take `Cc1cccc(C=C(C(=O)NC(C)c2ccccc2)C(=O)NC(C)c2ccccc2)c1` (stereo unspecified): the IC90 was 8.3 µM. In addition, the IC50 (HEPG2TOX_HILL_SLOPE 105, HEPG2TOX_R_SQUARED 0.565, PBLUC_HILL_SLOPE 4.68, PBLUC_R_SQUARED 0.0675, read-out: LUCIFERASE INFECTION ASSAY - IC50) was found to be 5.19 µM.

As to `Cc1ccc(C(C)C)c(Oc2nnnn2-c2ccccc2)c1`, the concentration for an effect of 90% (IC90) was 4.38 µM. Moreover, the IC50 (HEPG2TOX_HILL_SLOPE 3.94, HEPG2TOX_R_SQUARED 0.78, PBLUC_HILL_SLOPE 282, PBLUC_R_SQUARED 0.16, read-out: LUCIFERASE INFECTION ASSAY - IC50) came to 4.34 µM.

On to `CC1CCCC(C)N1CC(O)COC1CCC(C(C)(C)C)CC1` (stereo unspecified), for which the IC90 came to 3.62 µM. For the same compound, for the setting “HEPG2TOX_HILL_SLOPE 11.8, HEPG2TOX_R_SQUARED 0.0956, PBLUC_HILL_SLOPE 13.2, PBLUC_R_SQUARED 0.651, read-out: LUCIFERASE INFECTION ASSAY - IC50”, the IC50 came out at 3.06 µM.

As to `CCc1cn(Cc2ccccc2)c[n+]1Cc1ccccc1`, the concentration for an effect of 90% (IC90) was over 10.5 µM. Further, the IC50 (FFLUC_HILL_SLOPE 0.817, FFLUC_R_SQUARED 0.751, PBLUC_HILL_SLOPE 3.02, PBLUC_R_SQUARED 0.429, read-out: LUCIFERASE INFECTION ASSAY - IC50) came out at 5.71 µM.

For `CC(NC(=O)COc1ccc(-c2nnco2)cc1)c1ccc(Cl)cc1Cl` (stereo unspecified), the 90% effect concentration (IC90) was over 10 µM. Further, the concentration for half-maximal inhibition (IC50) (FFLUC_HILL_SLOPE 0.318, FFLUC_R_SQUARED 0.016, read-out: LUCIFERASE INFECTION ASSAY - IC50) is over 10 µM.

`CC(=O)Nc1ccc2c(Cn3ncc(Cl)c(Cl)c3=O)cc(=O)oc2c1`: the IC90 stood at 9.76 µM. For the same compound, under “HEPG2TOX_HILL_SLOPE 3.1, HEPG2TOX_R_SQUARED 0.966, PBLUC_HILL_SLOPE 14.3, 0.748, PBLUC_R_SQUARED 0.481, 0.667, read-out: LUCIFERASE INFECTION ASSAY - IC50”, the IC50 amounted to 5.45 µM.

Take `O=C(C1=NNCC1c1ccccc1)c1ccc2ccccc2c1` (stereo unspecified): the IC90 is over 11 µM. Moreover, for the setting “HEPG2TOX_HILL_SLOPE 1.14, HEPG2TOX_R_SQUARED 0.985, PBLUC_HILL_SLOPE 1.79, PBLUC_R_SQUARED 0.146, read-out: LUCIFERASE INFECTION ASSAY - IC50”, the concentration for half-maximal inhibition (IC50) was found to be 5.28 µM.

In the case of `O=C(NCc1ccc(-c2cccs2)s1)c1ccc([N+](=O)[O-])o1`, the concentration for an effect of 90% (IC90) is over 9.87 µM. In addition, the half-inhibitory concentration (IC50) (HEPG2TOX_HILL_SLOPE 1.96, HEPG2TOX_R_SQUARED 0.945, PBLUC_HILL_SLOPE 1.03, PBLUC_R_SQUARED 0.326, read-out: LUCIFERASE INFECTION ASSAY - IC50) is over 9.87 µM.

For the compound `COc1ccc(Br)cc1/C=C/C(=O)c1ccc(OCC#N)cc1`, the 90% effect concentration (IC90) is over 10 µM. Further, the concentration for half-maximal inhibition (IC50) (PBLUC_HILL_SLOPE 7.84, PBLUC_R_SQUARED 0.11, read-out: LUCIFERASE INFECTION ASSAY - IC50) was 9.52 µM.

Take `O=C(Nc1nc(-c2ccccn2)cs1)c1ccc(=O)n(Cc2ccccc2)n1`: the concentration for an effect of 90% (IC90) was determined as 9.95 µM. Further, the half-inhibitory concentration (IC50) (PBLUC_HILL_SLOPE 15.2, PBLUC_R_SQUARED 0.0748, read-out: LUCIFERASE INFECTION ASSAY - IC50) is 8.61 µM.

Turning to `Cc1cc(C)c(NC(=NCc2ccc(Cl)cc2)Nc2c(C)cc(C)cc2C)c(C)c1`, the IC90 was over 10 µM. Moreover, under “PBLUC_HILL_SLOPE 2.28, PBLUC_R_SQUARED 0.76, read-out: LUCIFERASE INFECTION ASSAY - IC50”, the 50% inhibitory concentration (IC50) was 5.92 µM.

For the compound `C#CC(CC)(CC)NC(=O)CSc1nc(C)nc2sc3c(c12)CCC3`, the concentration for an effect of 90% (IC90) was over 10 µM. Besides, the half-inhibitory concentration (IC50) under setting [1] was over 10 µM.

Take `c1ccc(-c2ccnc3c2ccc2c(-c4ccccc4)ccnc23)cc1`: the IC90 came out at 1.74 µM. In addition, the half-inhibitory concentration (IC50) (HEPG2TOX_HILL_SLOPE 2.07, HEPG2TOX_R_SQUARED 0.947, PBLUC_HILL_SLOPE 9.72, PBLUC_R_SQUARED 0.861, read-out: LUCIFERASE INFECTION ASSAY - IC50) stood at 1.39 µM.

Turning to `CCCCNC(=O)c1c(NC(=O)C(C)Oc2ccccc2)nc2ccccn12` (stereo unspecified), the 90% effect concentration (IC90) was over 8.67 µM. For the same compound, the IC50 (HEPG2TOX_HILL_SLOPE 1.79, HEPG2TOX_R_SQUARED 0.135, PBLUC_HILL_SLOPE 4.23, PBLUC_R_SQUARED 0.241, read-out: LUCIFERASE INFECTION ASSAY - IC50) turned out to be 6.54 µM.

With `O=C(Nc1ccc(F)c(Cl)c1)c1[nH]nc2ccccc12`, the IC90 is over 10 µM. In addition, for the setting “FFLUC_HILL_SLOPE 1.67, FFLUC_R_SQUARED 0.554, PBLUC_HILL_SLOPE 0.29, PBLUC_R_SQUARED 0.519, read-out: LUCIFERASE INFECTION ASSAY - IC50”, the half-maximal inhibitory concentration (IC50) was 0.104 µM.

For `O=C(CCOc1ccc(F)cc1)Nc1cc(Cl)cc(Cl)c1`, the 90% effect concentration (IC90) was over 10.1 µM. The half-inhibitory concentration (IC50) (PBLUC_HILL_SLOPE 0.967, PBLUC_R_SQUARED 0.399, read-out: LUCIFERASE INFECTION ASSAY - IC50) was over 10.1 µM.

As for `Cc1noc(C)c1COc1cccc(C(=O)Nc2cccc(S(=O)(=O)Nc3cccc(C(F)(F)F)c3)c2)c1`, the 90% effect concentration (IC90) is over 10 µM. Further, the IC50 (FFLUC_HILL_SLOPE 1.54, FFLUC_R_SQUARED 0.286, HEPG2TOX_HILL_SLOPE 4.14, HEPG2TOX_R_SQUARED 0.909, PBLUC_HILL_SLOPE 1.42, PBLUC_R_SQUARED 0.59, read-out: LUCIFERASE INFECTION ASSAY - IC50) turned out to be 6.04 µM.

For the compound `CSCc1cc(N2CCOCC2)nc(SCc2ccc(Cl)cc2Cl)n1`, the concentration for an effect of 90% (IC90) is over 7.93 µM. Further, the IC50 under setting [1] is over 7.93 µM.

In the case of `Cc1cc(-n2c(-c3cccnc3Oc3ccccc3)n[nH]c2=S)ccc1Br`, the concentration for an effect of 90% (IC90) was over 7.51 µM. For the same compound, the IC50 (PBLUC_HILL_SLOPE 0.263, PBLUC_R_SQUARED 0.232, read-out: LUCIFERASE INFECTION ASSAY - IC50) was over 7.51 µM.

Take `CC(C)c1cc(N(c2ccc(Br)cc2)S(=O)(=O)c2ccc(Cl)cc2)cc(C(C)C)c1O`: the IC90 was over 10 µM. Moreover, under “FFLUC_HILL_SLOPE 3.1, FFLUC_R_SQUARED 0.697, PBLUC_HILL_SLOPE 9.64, PBLUC_R_SQUARED 0.214, read-out: LUCIFERASE INFECTION ASSAY - IC50”, the half-inhibitory concentration (IC50) was found to be 8.66 µM.

Turning to `O=C(OC1CCCCC1)c1ccc(NC(=O)C2CCCCC2)cc1`, the IC90 was over 10 µM. The IC50 (PBLUC_HILL_SLOPE 6.21, PBLUC_R_SQUARED 0.113, read-out: LUCIFERASE INFECTION ASSAY - IC50) was found to be 9.48 µM.

Regarding `Cc1ccc(C(c2cc(Cl)c3cccnc3c2O)N2CCCC2)cc1` (stereo unspecified), the IC90 came to 4.12 µM. The IC50 (FFLUC_HILL_SLOPE 12.7, FFLUC_R_SQUARED 0.41, HEPG2TOX_HILL_SLOPE 6.94, HEPG2TOX_R_SQUARED 0.0505, PBLUC_HILL_SLOPE 13.5, PBLUC_R_SQUARED 0.562, read-out: LUCIFERASE INFECTION ASSAY - IC50) came to 3.5 µM.

As for `CC1CCCCN1CCCNC(=S)Nc1cc(C(F)(F)F)cc(C(F)(F)F)c1` (stereo unspecified), the IC90 is over 7.72 µM. The IC50 (PBLUC_HILL_SLOPE 2.02, PBLUC_R_SQUARED 0.36, read-out: LUCIFERASE INFECTION ASSAY - IC50) turned out to be 3.73 µM.

Turning to `COc1ccc(NC(C)=O)cc1Nc1ncnc2scc(-c3ccccc3)c12`, the 90% effect concentration (IC90) was over 10 µM. Besides, the IC50 (PBLUC_HILL_SLOPE 3.37, PBLUC_R_SQUARED 0.17, read-out: LUCIFERASE INFECTION ASSAY - IC50) is 9.19 µM.

Consider `CCOC(=O)c1cnc(SC(C)C(=O)Nc2nc(-c3ccccc3)cs2)nc1N` (stereo unspecified), for which the IC90 was over 10 µM. Besides, the half-maximal inhibitory concentration (IC50) (HEPG2TOX_HILL_SLOPE 0.514, HEPG2TOX_R_SQUARED 0.73, PBLUC_HILL_SLOPE 0.707, PBLUC_R_SQUARED 0.324, read-out: LUCIFERASE INFECTION ASSAY - IC50) worked out at 4.44 µM.

As to `O=C(Nc1c2ccccc2nc2ccccc12)c1[nH]nc2c1CCCC2`, the IC90 is 4.07 µM. In addition, the half-inhibitory concentration (IC50) (HEPG2TOX_HILL_SLOPE 2.71, HEPG2TOX_R_SQUARED 0.934, PBLUC_HILL_SLOPE 11.2, PBLUC_R_SQUARED 0.297, read-out: LUCIFERASE INFECTION ASSAY - IC50) came out at 3.34 µM.

Regarding `Cc1cc(C)cc(NC(=S)NC2CCCC(C)C2C)c1` (stereo unspecified), the IC90 is 9.4 µM. In addition, where the note is “PBLUC_HILL_SLOPE 3.85, PBLUC_R_SQUARED 0.565, read-out: LUCIFERASE INFECTION ASSAY - IC50”, the half-inhibitory concentration (IC50) was 5.32 µM.

For the compound `CC(C)CC(N)c1csc(Nc2nncc3ccccc23)n1` (stereo unspecified), the IC90 is 4.43 µM. Moreover, the IC50 (HEPG2TOX_HILL_SLOPE 11.3, HEPG2TOX_R_SQUARED 0.262, PBLUC_HILL_SLOPE 9.28, PBLUC_R_SQUARED 0.498, read-out: LUCIFERASE INFECTION ASSAY - IC50) stood at 3.5 µM.

With `CCN1C(=O)N(CCCc2cccnc2)C(=O)C12CCN(Cc1cnc(-c3ccccc3)s1)CC2`, the 90% effect concentration (IC90) was over 6.74 µM. Besides, where the note is “HEPG2TOX_HILL_SLOPE 2.98, HEPG2TOX_R_SQUARED 0.92, PBLUC_HILL_SLOPE 12.2, PBLUC_R_SQUARED 0.164, read-out: LUCIFERASE INFECTION ASSAY - IC50”, the IC50 was determined as 6.3 µM.
